Test results published in patent publication US11478466B2, “Small molecule promoting osteoblast differentiation” (Cornell University, priority 2019, dated 2022).

How the values were obtained:
[1] = test system: alkaline phosphatase (ALP); conditions: 154-analog library, 10 μM, C2C12, duplicate
Source text: (§1) To identify small-molecule activators of osteoblast differentiation, we measured ALP activity using a fluorescent emission assay as a reporter for enzymatic digestion of ALP substrate in lysates derived from C2C12 myoblasts. […] Therefore, before screening, the assay was calibrated using recombinant human BMP4 protein as a positive control. Compounds were robotically deposited onto 384-well plates and then overlaid by C2C12 cells for a 4-day culture period, followed by lysis and fluorescent substrate assays (FIG. 1A; Table 1). To ensure uniformity, C2C12 cells were maintained in normal culture medium containing 10% fetal bovine serum, and lysis and substrate addition achieved using a microplate multidrop device. The primary screen (Table 2) encompassed greater than 47,000 small molecules tested at a final concentration of 10 μM.
(§2) For the primary screen, library compounds were distributed onto 384-well microplates (Greiner Bio-One 781091) at a final concentration of 10 μM in culture medium using a Perkin Elmer Janus automated workstation and WinPrep Version 4.8.3.315. Positive (rhBMP4, 1 ng/ml, R&D Systems) and negative controls (DMSO, 0.2%) were manually added to each plate by multichannel pipet. C2C12 cells were seeded onto compounds and controls at a density of 2000/well using a Thermo Multidrop Combi reagent dispenser and cultured for 4 days at 37° C., 5% CO2. Culture medium was aspirated using a BioTek EL406 plate washer and cells were lysed in RIPA buffer (Millipore 20-188) at ambient temperature for 10 minutes. 10 μl fluorescent alkaline phosphatase substrate (AttoPhos, Promega S1000) was added to lysates and incubated an additional 10 minutes before measuring the fluorescence (Excitation 450 nm/Emission 580 nm) on a BioTek Synergy Neo2 stacking microplate reader. Plates were processed and relative fluorescence raw values measured in stacks of 10-20. The data were processed using Collaborative Drug Discovery web-based software (CDD Vault) to determine Z score calculated on DMSO control wells and percent activation normalized against positive and negative controls (NPA). Cherry-picked hit candidates were re-tested in concentration response experiments, from which 4 candidates were chosen and purchased for further testing from either ChemBridge or Enamine, based on availability.
(§3) We also purchased a library of 154 structural chemical analogs assembled by ChemBridge Corp. from available screening library compounds.

[2] = test system: alkaline phosphatase (ALP); experiment: cells; conditions: Mus musculus, C2C12, 96 h
Source text: as §1, §2, §3

Row | Compound | RFU Score (10 μM) [1] | activation at 10 µM [2]
1 | Cc1cc(C)c2[nH]c(=O)c(CN3CCN4CCN(C)CC4C3)cc2c1 (stereo not shown) [RU-0238998] | 469 | 6.62%
2 | CC(=O)NCCC1CCCCN1Cc1cc2cc(C)cc(C)c2[nH]c1=O (stereo not shown) [RU-0227648] | 494 | 7.48%
3 | Cc1cc(C)c2[nH]c(=O)c(CN(C)CCn3ccnc3C)cc2c1 [RU-0424498] | 486 | 7.21%
4 | Cc1cc(C)c2[nH]c(=O)c(CN3CCC(CN)C3)cc2c1 (stereo not shown) [RU-0424452] | 328 | 1.65%
5 | O=C(N[C@H]1CC[C@H]1NC1CCOCC1)c1[nH]cnc1-c1ccccc1 [RU-0424490] | 449 | 5.91%
6 | COC(=O)[C@H]1C[C@@H](O)CCN1Cc1cc2cc(C)cc(C)c2[nH]c1=O [RU-0424558] | 399 | 4.15%
7 | Cc1ccnc(CC(C)N(C)Cc2cc3cc(C)cc(C)c3[nH]c2=O)c1 (stereo not shown) [RU-0424496] | 516 | 8.27%
8 | CCn1nc(C(=O)O)c2c1CCN(C(=O)c1[nH]cnc1-c1ccccc1)C2 [RU-0424526] | 545 | 9.28%
9 | c1ccc(-c2nc[nH]c2-c2ccccc2Cn2cccn2)cc1 [RU-0222072] | 425 | 5.05%
10 | Cc1cc(C)c2[nH]c(=O)c(CN3C[C@@H]4CCN(C)[C@@H]4C3)cc2c1 [RU-0424491] | 498 | 7.63%
11 | Cc1cc(C)c2[nH]c(=O)c(-c3nccn3C(C)Cn3nc(C)cc3C)cc2c1 (stereo not shown) [RU-0424543] | 363 | 2.86%
12 | Cc1cc(C)c2[nH]c(=O)c(CN(Cc3cccnc3)C3CC3)cc2c1 [RU-0424487] | 501 | 7.72%
13 | Cc1cc(C)c2[nH]c(=O)c(CN3CCC(O)(CN(C)C)C3)cc2c1 (stereo not shown) [RU-0424500] | 523 | 8.52%
14 | CCOc1cccc(-c2[nH]cnc2-c2ccccc2)c1OCC(=O)O [RU-0424443] | 306 | 0.87%
15 | CC1(C2CCN(C(=O)c3[nH]cnc3-c3ccccc3)CC2)NC(=O)NC1=O (stereo not shown) [RU-0424463] | 422 | 4.96%
16 | COc1ccccc1N1CCN(C(=O)c2[nH]cnc2-c2ccccc2)CC1=O [RU-0424472] | 397 | 4.08%
17 | CO[C@@]12CC[C@@H](O)C[C@@H]1N(Cc1cc3cc(C)cc(C)c3[nH]c1=O)CC2 [RU-0424542] | 641 | 12.7%
18 | c1ccc(-c2nc(-c3[nH]cnc3-c3ccccc3)cs2)cc1 [RU-0424544] | 450 | 5.93%
19 | Cc1cc(C)c2[nH]c(=O)c(C3c4nc[nH]c4CCN3Cc3ccco3)cc2c1 (stereo not shown) [RU-0424474] | 566 | 10%
20 | CN1CC2(CCN(C(=O)c3[nH]cnc3-c3ccccc3)C2)OC1=O (stereo not shown) [RU-0253075] | 500 | 7.71%
21 | Cc1cc(C)c2[nH]c(=O)c(-c3ncc[nH]3)cc2c1 [RU-0424549] | 445 | 5.75%
22 | O=C(c1[nH]cnc1-c1ccccc1)N1CCCC(c2ccn[nH]2)C1 (stereo not shown) [RU-0424551] | 452 | 6%
23 | CO[C@H]1CC[C@@]2(OC)CCN(C(=O)c3[nH]cnc3-c3ccccc3)[C@H]2C1 [RU-0424522] | 458 | 6.21%
24 | Cc1cc(C)c2[nH]c(=O)c(CN3CC(c4ccccn4)C3)cc2c1 [RU-0424499] | 498 | 7.62%
25 | c1ccc(-c2nc[nH]c2-c2cccc(CN3CCOCC3)c2)cc1 [RU-0232369] | 294 | 0.43%
26 | CC(C)CN(C)[C@H]1CN(C(=O)c2[nH]cnc2-c2ccccc2)C[C@@H]1O [RU-0424534] | 638 | 12.6%
